These results are taken from patent publication US20240115654A1, “INTRAVENOUS ADMINISTRATION OF ENGINEERED ANTIMICROBIAL AMPHIPHILIC PEPTIDES” (priority 2021, published 2024).

Values after ≈ are worked out from the molar mass of the structure shown. Peptide text beside a SMILES is read from it.

Assay [1] concerns P. aeruginosa strains (PAO1 and 2 clinical isolates). As to the kind of experiment: Determination of bacterial resistance, passage at 0.5×MIC with daily MIC. In kind it is cell-based, Pseudomonas aeruginosa. The following applies: three P. aeruginosa strains, exposure at 0.5×MIC, FIG. 20. From the text:
Each antibiotic was compared for their propensity to select for bacterial resistance phenotypes in vitro.

The subject of a further assay is S. aureus. Nature of the assay: Periprosthetic joint infection model, implant biofilm CFU. The format is in vivo. The following applies: mouse, intraperitoneal; SEQ ID NO:1 0.1-10 mg/kg; compared to untreated control mice, FIG. 16. On the procedure: Periprosthetic joint infection was modeled in a mouse by placing an intra-articular K-wire through the medullary canal of the proximal femur followed by intra-articular inoculation with S. aureus. Animals were treated systemically with an intraperitoneal delivery of cefazolin, rifampin, or the exemplary peptide of SEQ ID NO: 1. Intraperitoneal delivery was chosen due to technical difficulties associated with intravenous delivery. Implant sonication and proximal femur homogenate were used to quantify viable bacteria.

Assay [2] concerns S. aureus strain SH1000 biofilms. As to the kind of experiment: In vitro biofilm disruption on stainless steel rods. The format is cell-based, Staphylococcus aureus. The following applies: S. aureus SH1000, 10×MIC, up to 24 hours, FIG. 15. The source says: FIG. 15 depicts the effect of administration of SEQ ID NO:1 and cefazolin on biofilm maintenance. […] SEQ ID NO:1 eliminated mature implant biofilms on a model strain of S. aureus, SH1000.

The subject of assay [3] is Staphylococcus aureus NRS382 (USA100; HA-MRSA). The format is cell-based. The following applies: USA100. On the procedure:
(§1) Each peptide was formulated in PBS buffer prior to testing. Peptides of SEQ ID NO:5 and SEQ ID NO:8 were brought up in 100% DMSO with 0.002% polysorbate-80 at 1.28 mg/mL (40× the highest final test concentration of 32 mcg/mL). Final test concentration of DMSO was 2.5% in the assay at the first dilution for those two compounds.
(§2) Mueller Hinton II broth (MHB II; BD; Lot Nos. 6258541 and 7143896) was used for MIC testing of aerobic organisms. 0.002% polysorbate 80 (P80) was added to the test medium.
(§3) MIC values were determined using a broth microdilution procedure described by CLSI (1, 3). Automated liquid handlers (Multidrop 384, Labsystems, Helsinki, Finland; Biomek 2000 and Biomek FX, Beckman Coulter, Fullerton CA) were used to conduct serial dilutions and liquid transfers.
(§4) To prepare the drug mother plates, which would provide the serial peptide dilutions for the replicate daughter plates, the wells of columns 2-12 of standard 96-well microdilution plates (Costar 3795) were filled with 150 μl of the designated diluent for each row of peptide. The test articles and comparator compounds (300 μl at 40× the highest concentration to be tested) were dispensed into the appropriate wells in column 1. The Biomek 2000 was then used to make 2-fold serial dilutions in the mother plates from column 1 through column 11. The wells of Column 12 contained no drug and served as the organism growth control wells for the assay.
(§5) The daughter plates were loaded with 185 μL per well of MHB II using the Multidrop 384. The daughter plates were completed on the Biomek FX instrument which transferred 5 uL of peptide solution from each well of a mother plate to the corresponding well of each daughter plate in a single step. A standardized inoculum of each test organism was prepared per CLSI methods. The inoculum for each organism was dispensed into sterile reservoirs divided by length (Beckman Coulter), and the Biomek 2000 was used to inoculate the plates. Daughter plates were placed on the Biomek 2000 work surface in reverse orientation so that inoculation took place from low to high drug concentration. The plates were then inoculated with 10 μL of the inoculum resulting in a final cell density of approximately 5×10^5 CFU/mL, per well.
(§6) Plates were stacked 3-4 high, covered with a lid on the top plate, placed in plastic bags, and incubated at 35° C. for 16 to 20 hrs. Following incubation, the microplates were removed from the incubator and viewed from the bottom using a plate viewer. […] The MIC was read and recorded as the lowest concentration of peptide that inhibited visible growth of the organism.

For assay [4], the system named is Enterococcus faecalis ATCC 700802 (V583 VRE). In kind it is cell-based. The following applies: ATCC 700802. Here is the method:
as §1, §2, §3, §4, §5, §6

In assay [5] the test system is Acinetobacter baumannii ATCC BAA-1797 (MDR). In kind it is cell-based. The following applies: ATCC BAA-1797. On the procedure:
as §1, §2, §3, §4, §5, §6

Assay [6] has as its system Escherichia coli ATCC 35218 (ESBL). The format is cell-based. The following applies: ATCC 35218. On the procedure: as §1, §2, §3, §4, §5, §6
Assay [7] deals with Enterococcus faecium ATCC 51559 (VRE). The format is cell-based. The following applies: ATCC 51559. Here is the method: as §1, §2, §3, §4, §5, §6
The test system of assay [8] is Escherichia coli ATCC 25922 (QC). In kind it is cell-based. The following applies: ATCC 25922. On the procedure:
as §1, §2, §3, §4, §5, §6

Assay [9] concerns Acinetobacter baumannii ATCC 19606 (non-MDR). The format is cell-based. The following applies: ATCC 19606. On the procedure:
as §1, §2, §3, §4, §5, §6

Assay [10] concerns Staphylococcus aureus ATCC 29213 (MSSA; QC). The format is cell-based. The following applies: ATCC 29213. Here is the method: as §1, §2, §3, §4, §5, §6
The subject of assay [11] is Escherichia coli ATCC BAA-2471 (NDM-1). The format is cell-based. The following applies: ATCC BAA-2471. On the procedure:
as §1, §2, §3, §4, §5, §6

Assay [12] relates to Staphylococcus aureus ATCC 43300 (MRSA). In kind it is cell-based. The following applies: ATCC 43300. On the procedure: as §1, §2, §3, §4, §5, §6
Assay [13] deals with Pseudomonas aeruginosa ATCC BAA-2109 (MDR). The format is cell-based. The following applies: ATCC BAA-2109. Here is the method:
as §1, §2, §3, §4, §5, §6

Assay [14] relates to Klebsiella pneumoniae ATCC BAA-1705 (KPC). In kind it is cell-based. The following applies: ATCC BAA-1705. Here is the method: as §1, §2, §3, §4, §5, §6
In assay [15] the test system is Streptococcus pyogenes ATCC 49399. In kind it is cell-based. The following applies: ATCC 49399. On the procedure: as §1, §2, §3, §4, §5, §6
The subject of assay [16] is Streptococcus pneumoniae ATCC 49619 (QC). In kind it is cell-based. The following applies: ATCC 49619. Here is the method: as §1, §2, §3, §4, §5, §6
In assay [17] the test system is Pseudomonas aeruginosa ATCC 27853 (non-MDR; QC). In kind it is cell-based. The following applies: ATCC 27853. On the procedure:
as §1, §2, §3, §4, §5, §6

The subject of assay [18] is Enterococcus faecalis ATCC 29212 (VSE; QC). The format is cell-based. The following applies: ATCC 29212. Here is the method:
as §1, §2, §3, §4, §5, §6

With `CO[C@H]1/C=C/O[C@@]2(C)Oc3c(C)c(O)c4c(O)c(c(/C=N/N5CCN(C)CC5)c(O)c4c3C2=O)NC(=O)/C(C)=C\C=C\[C@H](C)[C@H](O)[C@@H](C)[C@@H](O)[C@@H](C)[C@H](OC(C)=O)[C@@H]1C` [Rifampin], the “time to development of resistance (fold MIC >10)” value in [1] was no more than 3 days. Also, in the assay on S. aureus, the “reduction of implant biofilm CFU burden (sonicate culture)” value is on record as “comparable reduction in biofilms sonicate as compared to SEQ ID NO:1”.

Consider LL-37 [LL37], for which the “time to development of resistance (fold MIC >10)” value in [1] is listed as no more than 9 days.

With `Cc1nnc(SCC2=C(C(=O)O)N3C(=O)[C@@H](NC(=O)Cn4cnnn4)[C@H]3SC2)s1` [cefazolin], in assay [2], the “reduction of mature biofilm on stainless steel rods” value is reported as “did not achieve a three-log reduction”. For the same compound, the “reduction of implant biofilm CFU burden (sonicate culture)” value with S. aureus is “one log reduction in viable bacteria”.

With `CC[C@H](C)[C@H](N)C(=O)N[C@@H](CCCNC(=N)N)C(=O)N[C@@H](CCCNC(=N)N)C(=O)N[C@H](C(=O)N[C@H](C(=O)N[C@@H](CCCNC(=N)N)C(=O)N[C@@H](CCCNC(=N)N)C(=O)N[C@H](C(=O)N[C@@H](CCCNC(=N)N)C(=O)N[C@@H](CCCNC(=N)N)C(=O)N[C@H](C(=O)N[C@H](C(=O)N[C@@H](CCCNC(=N)N)C(=O)N[C@@H](CCCNC(=N)N)C(=O)N[C@H](C(=O)N[C@@H](CCCNC(=N)N)C(=O)N[C@@H](CCCNC(=N)N)C(=O)N[C@H](C(=O)N[C@H](C(=O)N[C@@H](CCCNC(=N)N)C(=O)N[C@@H](CCCNC(=N)N)C(=O)O)[C@@H](C)CC)[C@@H](C)CC)[C@@H](C)CC)[C@@H](C)CC)[C@@H](C)CC)[C@@H](C)CC)[C@@H](C)CC)[C@@H](C)CC` [SEQ ID NO: 4] (H-IRRIIRRIRRIIRRIRRIIRR-OH; N-terminus and C-terminus assumed), the MIC (in general, the least concentration at which growth counts as inhibited) in [3] came out at 4 µg/mL (≈ 1.37 µM); in [4] it was 8 µg/mL (≈ 2.75 µM); in assay [5] it was 8 µg/mL (≈ 2.75 µM); in assay [6] it was 8 µg/mL (≈ 2.75 µM); in assay [7], 4 µg/mL (≈ 1.37 µM); in [8] it was 4 µg/mL (≈ 1.37 µM). In addition, the MIC was 8 µg/mL (≈ 2.75 µM) in assay [9]; 8 µg/mL (≈ 2.75 µM) in assay [10]; 4 µg/mL (≈ 1.37 µM) in [11]; 4 µg/mL (≈ 1.37 µM) in assay [12]; 4 µg/mL (≈ 1.37 µM) in [13]; 32 µg/mL (≈ 11 µM) in assay [14]. The minimum inhibitory concentration (MIC) in [15] worked out at 16 µg/mL (≈ 5.5 µM); in [16] it was 16 µg/mL (≈ 5.5 µM); in assay [17], 8 µg/mL (≈ 2.75 µM); in [18], 8 µg/mL (≈ 2.75 µM).
